Measurements published in ChEMBL document CHEMBL4627246, “Pyroglutamide-Based P2X7 Receptor Antagonists Targeting Inflammatory Bowel Disease” (J Med Chem, 2020).

Legend:
Type in all cases: cell-based
A549 = test: Cytotoxicity against human A549/ATCC cells assessed as effect on cell growth at 10 uM incubated for 48 hrs by sulforhodamine B assay; details: a549, 48 h
SK-MEL-2 = test: Cytotoxicity against human SK-MEL-2 cells assessed as effect on cell growth at 10 uM incubated for 48 hrs by sulforhodamine B assay; details: sk-mel-2, 48 h
LOX IMVI = test: Cytotoxicity against human LOXIMVI cells assessed as effect on cell growth at 10 uM incubated for 48 hrs by sulforhodamine B assay
T47D = test: Cytotoxicity against human T47D cells assessed as effect on cell growth at 10 uM incubated for 48 hrs by sulforhodamine B assay
NCI-H460 = test: Cytotoxicity against human NCI-H460 cells assessed as effect on cell growth at 10 uM incubated for 48 hrs by sulforhodamine B assay; details: nci-h460, 48 h
NCI-H522 = test: Cytotoxicity against human NCI-H522 cells assessed as effect on cell growth at 10 uM incubated for 48 hrs by sulforhodamine B assay; details: nci-h522, 48 h
BT-549 = test: Cytotoxicity against human BT549 cells assessed as effect on cell growth at 10 uM incubated for 48 hrs by sulforhodamine B assay; details: bt-549, 48 h
SNB-75 = test: Cytotoxicity against human SNB75 cells assessed as effect on cell growth at 10 uM incubated for 48 hrs by sulforhodamine B assay; details: snb-75, 48 h
RPMI-8226 = test: Cytotoxicity against human RPMI8226 cells assessed as effect on cell growth at 10 uM incubated for 48 hrs by sulforhodamine B assay; details: rpmi-8226, 48 h
IGROV-1 = test: Cytotoxicity against human IGROV1 cells assessed as effect on cell growth at 10 uM incubated for 48 hrs by sulforhodamine B assay; details: igrov-1, 48 h
SW-620 = test: Cytotoxicity against human SW620 cells assessed as effect on cell growth at 10 uM incubated for 48 hrs by sulforhodamine B assay; details: sw-620, 48 h
HT-29 = test: Cytotoxicity against human HT-29 cells assessed as effect on cell growth at 10 uM incubated for 48 hrs by sulforhodamine B assay; details: ht-29, 48 h
SF-295 = test: Cytotoxicity against human SF295 cells assessed as effect on cell growth at 10 uM incubated for 48 hrs by sulforhodamine B assay; details: sf-295, 48 h
MOLT-4 = test: Cytotoxicity against human MOLT4 cells assessed as effect on cell growth at 10 uM incubated for 48 hrs by sulforhodamine B assay; details: molt-4, 48 h
KM12 = test: Cytotoxicity against human KM12 cells assessed as effect on cell growth at 10 uM incubated for 48 hrs by sulforhodamine B assay; details: km12, 48 h
SNB-19 = test: Cytotoxicity against human SNB19 cells assessed as effect on cell growth at 10 uM incubated for 48 hrs by sulforhodamine B assay; details: snb-19, 48 h
OVCAR-4 = test: Cytotoxicity against human OVCAR4 cells assessed as effect on cell growth at 10 uM incubated for 48 hrs by sulforhodamine B assay; details: ovcar-4, 48 h
SK-OV-3 = test: Cytotoxicity against human SKOV3 cells assessed as effect on cell growth at 10 uM incubated for 48 hrs by sulforhodamine B assay; details: sk-ov-3, 48 h
NCI-H23 = test: Cytotoxicity against human NCI-H23 cells assessed as effect on cell growth at 10 uM incubated for 48 hrs by sulforhodamine B assay; details: nci-h23, 48 h
OVCAR-8 = test: Cytotoxicity against human OVCAR8 cells assessed as effect on cell growth at 10 uM incubated for 48 hrs by sulforhodamine B assay; details: ovcar-8, 48 h

Measured: Activity

COc1ccccc1CN1C(=O)[C@@H]2C/C(=C\N(C)C)C(=O)N2C1N(C)C (stereo not given in full)
Non-Toxic: A549 | SK-MEL-2 | LOX IMVI | T47D | NCI-H460 | NCI-H522 | BT-549 | SNB-75 | RPMI-8226 | IGROV-1 | SW-620 | HT-29 | SF-295 | MOLT-4 | KM12 | SNB-19 | OVCAR-4 | SK-OV-3 | NCI-H23 | OVCAR-8

O=C1N[C@H](C(=O)NCc2ccc(Cl)cc2Cl)C/C1=C/NCc1ccc(Cl)cc1Cl
Non-Toxic: A549 | SK-MEL-2 | LOX IMVI | T47D | NCI-H460 | NCI-H522 | BT-549 | SNB-75 | RPMI-8226 | IGROV-1 | SW-620 | HT-29 | SF-295 | MOLT-4 | KM12 | SNB-19 | OVCAR-4 | SK-OV-3 | NCI-H23 | OVCAR-8

CN(C)/C=C1\C[C@H]2C(=O)N(/C(=C/N(C)C)c3ccncc3)C(N(C)C)N2C1=O (stereo not given in full)
Non-Toxic: A549 | SK-MEL-2 | LOX IMVI | T47D | NCI-H460 | NCI-H522 | BT-549 | SNB-75 | RPMI-8226 | IGROV-1 | SW-620 | HT-29 | SF-295 | MOLT-4 | KM12 | SNB-19 | OVCAR-4 | SK-OV-3 | NCI-H23 | OVCAR-8

O=C(NCc1ccc(Cl)cc1Cl)[C@@H]1CCC(=O)N1C(c1ccc(Cl)cc1)c1ccc(Cl)cc1
Non-Toxic: A549 | SK-MEL-2 | LOX IMVI | T47D | NCI-H460 | NCI-H522 | BT-549 | SNB-75 | RPMI-8226 | IGROV-1 | SW-620 | HT-29 | SF-295 | MOLT-4 | KM12 | SNB-19 | OVCAR-4 | SK-OV-3 | NCI-H23 | OVCAR-8

CN(C)/C=C1\C[C@H]2C(=O)N(Cc3ccccc3Cl)C(N(C)C)N2C1=O (stereo not given in full)
Non-Toxic: A549 | SK-MEL-2 | LOX IMVI | T47D | NCI-H460 | NCI-H522 | BT-549 | SNB-75 | RPMI-8226 | IGROV-1 | SW-620 | HT-29 | SF-295 | MOLT-4 | KM12 | SNB-19 | OVCAR-4 | SK-OV-3 | NCI-H23 | OVCAR-8

O=C(NCc1ccc(Cl)cc1Cl)[C@@H]1CCC(=O)N1c1ccc(Cl)cc1Cl
Non-Toxic: A549 | SK-MEL-2 | LOX IMVI | T47D | NCI-H460 | NCI-H522 | BT-549 | SNB-75 | RPMI-8226 | IGROV-1 | SW-620 | HT-29 | SF-295 | MOLT-4 | KM12 | SNB-19 | OVCAR-4 | SK-OV-3 | NCI-H23 | OVCAR-8

O=C1N[C@H](C(=O)NCc2ccc(Cl)cc2Cl)C/C1=N\O (stereo in doubt)
Non-Toxic: A549 | SK-MEL-2 | LOX IMVI | T47D | NCI-H460 | NCI-H522 | BT-549 | SNB-75 | RPMI-8226 | IGROV-1 | SW-620 | HT-29 | SF-295 | MOLT-4 | KM12 | SNB-19 | OVCAR-4 | SK-OV-3 | NCI-H23 | OVCAR-8

O=C(NCc1ccccc1Cl)[C@@H]1CCC(=O)N1c1ccccc1
Non-Toxic: A549 | SK-MEL-2 | LOX IMVI | T47D | NCI-H460 | NCI-H522 | BT-549 | SNB-75 | RPMI-8226 | IGROV-1 | SW-620 | HT-29 | SF-295 | MOLT-4 | KM12 | SNB-19 | OVCAR-4 | SK-OV-3 | NCI-H23 | OVCAR-8

O=C(NCCc1ccc(Cl)cc1Cl)[C@@H]1CCC(=O)N1c1ccccc1
Non-Toxic: A549 | SK-MEL-2 | LOX IMVI | T47D | NCI-H460 | NCI-H522 | BT-549 | SNB-75 | RPMI-8226 | IGROV-1 | SW-620 | HT-29 | SF-295 | MOLT-4 | KM12 | SNB-19 | OVCAR-4 | SK-OV-3 | NCI-H23 | OVCAR-8
